This test deals with PR8 influenza A virus (influenza/A/PR/8/34 virus). Format: cell-based. The note with it: MDCK cells pretreated 1 hour with 20 mM NH4Cl and kept under NH4Cl; […]; approximately 48 hours PI; 4,000 Hz; listed as ammonium chloride (NH4Cl).

Consider `Cl.N` [NH4Cl, ammonium chloride], for which the “signal resistance (ECIS) of the cell monolayer following influenza inoculation” value is “the reduction in signal resistance due to influenza infection is abolished”.

These data come from patent US20080233561A1, “Method for Measuring Cytopathic Effect Due to Viral Infection in Cells Using Electric Cell-Substrate Impedance Sensing” (UNIVERSITY OF LOUISVILLE RESEARCH FOUNDATION, INC., priority 2005, published 2008).
